Source: patent US8431603B2, “3-phenylpyrazolo[5,1-b]thiazole compounds” (Eisai R&D Management Co., Ltd., priority 2008, dated 2013)

What was measured:
[1] = pretreatment; cited from earlier work
[2] = test system: rats; settings: cited from earlier work
[3] = test system: rats; settings: cited from earlier work; remark: listed apart in the source
[4] = in vivo; cited from earlier work
[5] = in vivo; cited from earlier work; remark: listed apart in the source
[6] = test system: rats; settings: cited from earlier work; remark: listed apart in the source
[7] = in vivo; cited from earlier work; remark: listed apart in the source
[8] = target: T1, human CRFR1 (Homo sapiens, UniProt P34998); test: CRFR1 binding test (SPA competition with 125I-CRF, membrane fraction of CRFR1-expressing HEK293 cells); settings: 100 pM 125I-CRF, room temperature, read-out: CRF1 receptor binding capacity IC50
T1 construct: The full-length CRFR1 gene was obtained by PCR using human brain cDNA library; expressed in transfected cells; pcDNA3.1 expression vector; membrane fraction used
T1 sequence (P34998 24-415): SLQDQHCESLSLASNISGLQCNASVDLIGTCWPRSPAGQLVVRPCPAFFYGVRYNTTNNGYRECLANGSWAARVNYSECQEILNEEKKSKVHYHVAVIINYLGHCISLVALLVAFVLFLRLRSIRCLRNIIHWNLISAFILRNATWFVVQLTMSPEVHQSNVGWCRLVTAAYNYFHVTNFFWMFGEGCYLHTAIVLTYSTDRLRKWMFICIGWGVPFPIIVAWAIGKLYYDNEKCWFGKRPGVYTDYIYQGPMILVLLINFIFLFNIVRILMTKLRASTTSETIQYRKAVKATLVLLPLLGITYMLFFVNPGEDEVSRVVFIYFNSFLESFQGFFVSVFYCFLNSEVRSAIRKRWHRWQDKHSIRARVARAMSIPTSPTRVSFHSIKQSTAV
Protocol: The binding capacities of the compounds of the invention for CRF1 receptor (CRFR1) were evaluated.
The membrane fraction of human CRFR1 high-expressing cells was used as the material for a CRFR1 binding experiment. The CRFR1-expressing cells were prepared in the following manner. The full-length CRFR1 gene was obtained by PCR using human brain cDNA library (QuickClone™ Clontech). The obtained DNA fragment was inserted into a cloning vector and the nucleotide sequence was confirmed. cDNA having the proper nucleotide sequence was linked to an expression vector (pcDNA3.1™, Invitrogen). The CRFR1 expression vector was introduced into HEK293 cell, and the resistant cells which proliferated in culture medium containing G418 (1 mg/ml) were cloned by the limiting dilution method. Out of the cloned cells, cells having high binding affinity between the membrane fraction per unit of protein and sauvagine were selected according to the following binding experiment. And the selected cells were used for the experiments.
The cloned cells obtained in (1) were collected and suspended in ice-cooled membrane buffer (50 mM Tris-HCl, 5 mM MgCl2, 2 mM EGTA, 1 mM DTT, protease inhibitor cocktail (COMPLETE™, Roche Diagnostics) pH 7.3), and then the cells were disrupted with a Polytron ([…]) while cooling on ice (level 5, 10 seconds, 2-5 times, ice-cooling) and then centrifuged (2,000 rpm, 5 minutes, 4° C.), after which the supernatant was collected. Membrane buffer was added to the precipitate, and the mixture was subjected to Polytron treatment (same conditions as above) and centrifuged (same conditions as above), and the obtained supernatant was collected and combined with the previous supernatant. This was centrifuged (13,000 rpm (18,000×g), 30 minutes, 4° C.) to prepare cell membranes. The precipitated cell membranes were suspended in membrane buffer and disrupted with a Polytron (level 5, 10 seconds, 3-5 times, ice-cooling) to prepare a dispersed suspension. The protein assay was performed.
The following method (1) or (2) was performed for use as the cell membrane fraction.
(1) The above dispersed suspension was diluted with membrane buffer containing 0.1% BSA to a protein concentration of 200 μg/ml, for use as the cell membrane fraction
(2) The above dispersed suspension was frozen for preservation, and if needed, thawed, re-dispersed and diluted for used as the cell membrane fraction.
A binding competition experiment with CRF was conducted by the SPA (GE Healthcare) method using a 96-well plate. A mixture of 5 μg of the cell membrane fraction protein, 1 mg of SPA beads and 100 pM ^125I-CRF (Perkin Elmer) was allowed to stand at room temperature for at least 2 hours in the presence of a test compound, and the radioactivity of each well after centrifugation (1,200 rpm (260×g), 5 minutes, room temperature) was measured with a TopCount (registered trademark; Perkin Elmer).
The radioactivity with addition of a 4,000-fold excess of non-radioactive sauvagine as the nonspecific binding was subtracted from each value, and the resulting value was expressed as a percentage (% of control), with 100% as the radioactivity without addition of the test compound (control). The IC50 value was calculated from a binding inhibition curve drawn with test compound concentration on the horizontal axis and % (% of control) on the vertical axis.

[9] = test system: Balb/c mice; test: Light/dark box test in mice (anxiolytic effect); type: in vivo
Protocol: The light/dark box test in mice was carried out according to a modified method of Belzung C., Misslin R., Vogel E. et al. (Reference; Behavioural effects of the benzodiazepine receptor partial agonist RO16-6028 in mice, Psychopharmacology, 97, 388-391, 1989). The test apparatus used was a light/dark box comprising a covered black acrylic box (dark box; 15×10×20 cm), an uncovered white acrylic box (light box; 15×20×20 cm) and a black acrylic tunnel (10×7×4.5 cm) which connects dark box and light box and enables a mouse to freely move back and forth between the dark box and light box. In this test apparatus, however, a transparent acrylic polymer was used for the front side (20×20 cm) and back side (20×20 cm) of the light box to allow observation of the behavior. After setting illumination so that the light intensity of the floor of the light box was 150 Lux, 5-week-old male Balb/c mice (purchased from Nihon Charles River) were introduced into the dark box at the beginning of the test. For the test, the tested compound was suspended in 5% dimethylsulfoxide, 5% Cremopor EL and 90% physiological saline and orally administered to the test animals one hour prior to the start of the test.
The time spent in the light box was measured as an index of the anxiolytic effect, with “spend in the light box” defined as the state in which all limbs of the mice were on the floor of the light box. […] The statistical significance between the vehicle-treated group and the test compound-treated groups was analyzed by one way analysis of variance followed by Dunnett multiple comparison when multiple doses were set for the same test, and by the Mann-Whitney U test when only one dose was set.

[10] = in vivo; cited from earlier work; remark: listed apart in the source
[11] = test system: high-anxiety rats; settings: particularly in high-anxiety rats; cited from earlier work
[12] = test system: rats; settings: cited from earlier work; remark: listed apart in the source
[13] = in vivo; cited from earlier work; remark: listed apart in the source
[14] = test system: rat; settings: cited from earlier work
[15] = test system: Tg2576 mice; settings: cited from earlier work
[16] = in vivo; cited from earlier work; remark: listed apart in the source
[17] = in vivo; cited from earlier work; remark: listed apart in the source
[18] = in vivo; cited from earlier work; remark: listed apart in the source
[19] = test system: ethanol withdrawal rats; settings: cited from earlier work
[20] = in vivo; cited from earlier work; remark: listed apart in the source
[21] = test system: IBS patients; settings: cited from earlier work

In the case of CCCCN(CC)c1nc(C)nc2c1c(C)cn2-c1c(C)cc(C)cc1C [CP-154526], the “naltrexone-induced morphine withdrawal symptoms” value [1] is given as “inhibits”, the “anti-depressant and anti-anxiety actions” value [2] is given as “exhibits anti-depressant and anti-anxiety actions” and the “recurrence of stress-elicited drug (heroin, cocaine)-seeking behavior” value [3] is given as “inhibits”. For the same compound, the “learning disturbance following acute stress” value [4] was “inhibits”, the “gastric emptying retardation following surgery” value [5] was “ameliorates” and the “recurrence of stress-elicited alcohol-seeking behavior” value [6] was “inhibits”.
In the case of CCN(c1nc(C)cc(N2CC=C(c3cccc(F)c3)CC2)n1)c1ccc(C(C)C)cc1SC [CRA1000], the “stress-related reduction in food intake” value [7] is listed as “inhibit”.
For COc1cc(C#N)cc(OC)c1-c1csc2c(N(CC3CC3)CC3CCOC3)c(OC)nn12 (stereo not drawn) [Example 14, 4-{7-[(Cyclopropylmethyl)(tetrahydrofuran-3-ylmethyl)amino]-6-methoxypyrazolo[5,1-b][1,3]thiazol-3-yl}-3,5-diimethoxybenzonitrile], the IC50 [8] was 90 nM, the “anxiolytic effect in the light/dark box test” value ([9]; 30 mg/kg, oral administration) was “statistically significant effects” and the minimal effective dose ([9]; Mus musculus, 1 h, minimum dose significantly prolonging time spent in the light box vs vehicle, oral, one hour prior to test) was 30 mg/kg.
In the case of CCCN(CCC)c1cc(C)nc2c(-c3cnc(N(C)C)cc3C)c(C)nn12 [Example R121919], the “ameliorating depression, depressive symptoms, anxiety” value [10] is listed as “effective”, the stress-related sleep disorder [11] is listed as “inhibits” and the anti-anxiety action [12] is listed as “exhibits an anti-anxiety action”.
In the case of CCCN(CC1CC1)c1nc(C)nc(Nc2c(Cl)cc(Cl)cc2Cl)c1Cl [NBI-27914], the “limbic system seizure (convulsion and epilepsy induced by CRF administration)” value [13] is listed as “inhibits”, the “water avoidance stress-related rat catharsis” value [14] is listed as “inhibits” and the “increased levels of Aβ and Aβ plaque deposition induced by stress” value [15] is listed as “inhibits”.
In the case of CCCCN(CC)c1nc(C)nc2c1c(C)c(C)n2-c1c(C)cc(C)cc1C [antalarmin], the “stress-induced hippocampal tau phosphorylation” value [16] is listed as “inhibits” and the “hypertension induced by intraventricular administration of CRF” value [17] is listed as “inhibits”.
For α-helical CRF(9-41), the “stress-related reduction in food intake” value [7] is given as “inhibit”, the “ischemic and excitotoxic encephalopathy” value [18] is given as “inhibits” and the anxiety behavior [19] is given as “inhibits”. The “stress-related increase in intracerebral amyloid-β” value [20] was “suppresses”, the “abdominal pain and anxiety” value [21] was “reduces” and the colon intestinal hyperkinesis [21] was “inhibits”.
